Results published in ChEMBL document CHEMBL1201861, “Genomics of Drug Sensitity in Cancer screening data, Wellcome Trust Sanger Institute”.

How the values were obtained:
Experiment in all cases: cells
Calu-6 = type: functional, cell-based, Homo sapiens; settings: Homo sapiens, Calu-6;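 note: growth of human Calu-6 cells, read out by a cell viability assay, IC50 marking inhibition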
Description: SANGER: Inhibition of human Calu-6 cell growth in a cell viability assay.

DB = type: functional, cell-based, Homo sapiens; settings: Homo sapiens, DB
Description: SANGER: Inhibition of human DB cell growth in a cell viability assay.

EM-2 = type: functional, cell-based, Homo sapiens; settings: Homo sapiens, EM-2;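 note: growth inhibition of EM-2 cells, read out with a cell viability assay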
Description: SANGER: Inhibition of human EM-2 cell growth in a cell viability assay.

ES7 = type: functional, cell-based, Homo sapiens; settings: Homo sapiens, ES7;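 note: growth inhibition of cultured human ES7 cells, read out as cell viability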
Description: SANGER: Inhibition of human ES7 cell growth in a cell viability assay.

GOTO = type: functional, cell-based, Homo sapiens; settings: Homo sapiens, GOTO;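 note: growth inhibition of GOTO cells, read out by a cell viability assay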
Description: SANGER: Inhibition of human GOTO cell growth in a cell viability assay.

HCC 2998 = type: functional, cell-based, Homo sapiens; settings: Homo sapiens, HCC 2998;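 note: growth inhibition of human HCC2998 cells, measured with a cell viability read-out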
Description: SANGER: Inhibition of human HCC2998 cell growth in a cell viability assay.

HCE-4 = type: functional, cell-based, Homo sapiens; settings: Homo sapiens, HCE-4;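 note: cell viability assay measuring inhibition of growth in the human HCE-4 cell line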
Description: SANGER: Inhibition of human HCE-4 cell growth in a cell viability assay.

HDLM-2 = type: functional, cell-based, Homo sapiens; settings: Homo sapiens, HDLM-2;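 note: cell viability assay measuring suppression of HDLM-2 proliferation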
Description: SANGER: Inhibition of human HDLM-2 cell growth in a cell viability assay.

IST-SL1 = type: functional, cell-based, Homo sapiens; settings: Homo sapiens, IST-SL1;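 note: growth inhibition of human IST-SL1 cells, read out with a cell viability assay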
Description: SANGER: Inhibition of human IST-SL1 cell growth in a cell viability assay.

K562 = type: functional, cell-based, Homo sapiens; settings: Homo sapiens, K562
Description: SANGER: Inhibition of human K-562 cell growth in a cell viability assay.

KP-N-YS = type: functional, cell-based, Homo sapiens; settings: Homo sapiens, KP-N-YS;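 note: cell viability assay measuring inhibition of cell line growth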
Description: SANGER: Inhibition of human KP-N-YS cell growth in a cell viability assay.

KS-1 = type: functional, cell-based, Homo sapiens; settings: Homo sapiens, KS-1;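 note: growth inhibition of KS-1 cells, read out with a cell viability assay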
Description: SANGER: Inhibition of human KS-1 cell growth in a cell viability assay.

KU812 cell line = type: functional, cell-based, Homo sapiens; settings: Homo sapiens, KU812;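 note: growth inhibition of KU812 cells, read out with a cell viability assay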
Description: SANGER: Inhibition of human KU812 cell growth in a cell viability assay.

KY821 = type: functional, cell-based, Homo sapiens; settings: Homo sapiens, KY821;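 note: growth inhibition of human KY821 cells, read out by a cell viability assay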
Description: SANGER: Inhibition of human KY821 cell growth in a cell viability assay.

L-428 = type: functional, cell-based, Homo sapiens; settings: Homo sapiens, L-428
Description: SANGER: Inhibition of human L-428 cell growth in a cell viability assay.

LAN-6 = type: functional, cell-based, Homo sapiens; settings: Homo sapiens, LAN-6;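 note: growth inhibition of LAN-6 cells, determined with a cell viability assay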
Description: SANGER: Inhibition of human LAN-6 cell growth in a cell viability assay.

LB2241-RCC = type: functional, cell-based, Homo sapiens; settings: Homo sapiens, LB2241-RCC;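 note: cell viability assay measuring how strongly the cultured human renal carcinoma line is prevented from growing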
Description: SANGER: Inhibition of human LB2241-RCC cell growth in a cell viability assay.

LS-513 = type: functional, cell-based, Homo sapiens; settings: Homo sapiens, LS-513
Description: SANGER: Inhibition of human LS-513 cell growth in a cell viability assay.

MFH-ino = type: functional, cell-based, Homo sapiens; settings: Homo sapiens, MFH-ino;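 note: growth inhibition of human MFH-ino cells, read out by a cell viability assay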
Description: SANGER: Inhibition of human MFH-ino cell growth in a cell viability assay.

ML-2 = type: functional, cell-based, Homo sapiens; settings: Homo sapiens, ML-2;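 note: growth inhibition of ML-2 cells, measured with a cell viability readout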
Description: SANGER: Inhibition of human ML-2 cell growth in a cell viability assay.

MPP-89 = type: functional, cell-based, Homo sapiens; settings: Homo sapiens, MPP-89;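 note: growth inhibition of human MPP-89 cells, read out with a cell viability assay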
Description: SANGER: Inhibition of human MPP-89 cell growth in a cell viability assay.

MV4-11 = type: functional, cell-based, Homo sapiens, MV-4-11; settings: Homo sapiens, MV4-11;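 note: cell viability readout measuring growth inhibition of human MV-4-11 cells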
Description: SANGER: Inhibition of human MV-4-11 cell growth in a cell viability assay.

MZ2-MEL = type: functional, cell-based, Homo sapiens; settings: Homo sapiens, MZ2-MEL;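 note: growth inhibition of MZ2-MEL cells read out with a cell viability assay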
Description: SANGER: Inhibition of human MZ2-MEL cell growth in a cell viability assay.

MZ7-mel = type: functional, cell-based, Homo sapiens; settings: Homo sapiens, MZ7-mel;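 note: growth inhibition of human MZ7-mel cells, measured by a cell viability assay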
Description: SANGER: Inhibition of human MZ7-mel cell growth in a cell viability assay.

Mo = type: functional, cell-based, Homo sapiens; settings: Homo sapiens, Mo
Description: SANGER: Inhibition of human Mo-T cell growth in a cell viability assay.

NB69 = type: functional, cell-based, Homo sapiens; settings: Homo sapiens, NB69;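 note: growth inhibition of NB69 cells, determined by a cell viability assay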
Description: SANGER: Inhibition of human NB69 cell growth in a cell viability assay.

NCI-H1304 = type: functional, cell-based, Homo sapiens; settings: Homo sapiens, NCI-H1304;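 note: growth inhibition of the cancer cell line, measured in a cell viability assay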
Description: SANGER: Inhibition of human NCI-H1304 cell growth in a cell viability assay.

NCI-H1395 = type: functional, cell-based, Homo sapiens; settings: Homo sapiens, NCI-H1395;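 note: cell viability assay read-out quantifying reduced proliferation of human NCI-H1395 cells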
Description: SANGER: Inhibition of human NCI-H1395 cell growth in a cell viability assay.

NCI-H1838 = type: functional, cell-based, Homo sapiens; settings: Homo sapiens, NCI-H1838;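 note: growth inhibition of NCI-H1838 cells, determined with a cell viability readout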
Description: SANGER: Inhibition of human NCI-H1838 cell growth in a cell viability assay.

NCI-H2126 = type: functional, cell-based, Homo sapiens; settings: Homo sapiens, NCI-H2126;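 note: growth inhibition of the cancer cell line, determined with a cell viability readout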
Description: SANGER: Inhibition of human NCI-H2126 cell growth in a cell viability assay.

NCI-H720 = type: functional, cell-based, Homo sapiens; settings: Homo sapiens, NCI-H720;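 note: growth inhibition of human NCI-H720 cells determined by a cell viability assay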
Description: SANGER: Inhibition of human NCI-H720 cell growth in a cell viability assay.

SNU1 = type: functional, cell-based, Homo sapiens; settings: Homo sapiens, SNU1;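 note: growth inhibition of human NCI-SNU-1 cells, measured with a cell viability assay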
Description: SANGER: Inhibition of human NCI-SNU-1 cell growth in a cell viability assay.

NOS-1 = type: functional, cell-based, Homo sapiens; settings: Homo sapiens, NOS-1;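 note: growth inhibition of the human NOS-1 cell line, read out with a cell viability assay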
Description: SANGER: Inhibition of human NOS-1 cell growth in a cell viability assay.

NTERA-2-cl-D1 = type: functional, cell-based, Homo sapiens; settings: Homo sapiens, NTERA-2-cl-D1;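 note: inhibition of cell growth, measured with a cell viability assay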
Description: SANGER: Inhibition of human NTERA-S-cl-D1 cell growth in a cell viability assay.

OCUB-M = type: functional, cell-based, Homo sapiens; settings: Homo sapiens, OCUB-M;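 note: growth inhibition of the cancer cell line, read out through a cell viability assay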
Description: SANGER: Inhibition of human OCUB-M cell growth in a cell viability assay.

ONS-76 = type: functional, cell-based, Homo sapiens; settings: Homo sapiens, ONS-76;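 note: growth inhibition of human ONS-76 cells, read out with a cell viability assay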
Description: SANGER: Inhibition of human ONS-76 cell growth in a cell viability assay.

P30-OHK = type: functional, cell-based, Homo sapiens; settings: Homo sapiens, P30-OHK;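 note: growth inhibition of the P30-OHK cell line, read out with a cell viability assay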
Description: SANGER: Inhibition of human P30-OHK cell growth in a cell viability assay.

SF-126 = type: functional, cell-based, Homo sapiens; settings: Homo sapiens, SF-126;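 note: growth inhibition of human SF126 cells, read out with a cell viability assay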
Description: SANGER: Inhibition of human SF126 cell growth in a cell viability assay.

SF-539 = type: functional, cell-based, Homo sapiens; settings: Homo sapiens, SF-539;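 note: Read-out is a cell viability assay, with IC50 reflecting inhibition of cell growth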
Description: SANGER: Inhibition of human SF539 cell growth in a cell viability assay.

SW872 = type: functional, cell-based, Homo sapiens; settings: Homo sapiens, SW872;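 note: growth inhibition of SW872 cells, read out by a viability assay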
Description: SANGER: Inhibition of human SW872 cell growth in a cell viability assay.

697 = type: functional, cell-based, Homo sapiens; settings: Homo sapiens
Description: SANGER: Inhibition of human 697 cell growth in a cell viability assay.

8-MG-BA = type: functional, cell-based, Homo sapiens; settings: Homo sapiens, 8-MG-BA;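 note: growth inhibition of 8-MG-BA cells, read out with a cell viability assay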
Description: SANGER: Inhibition of human 8-MG-BA cell growth in a cell viability assay.

A253 cell line = type: functional, cell-based, Homo sapiens; settings: Homo sapiens, A253;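 note: growth inhibition of A253 cells, read out with a cell viability assay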
Description: SANGER: Inhibition of human A253 cell growth in a cell viability assay.

A3-KAW = type: functional, cell-based, Homo sapiens; settings: Homo sapiens, A3-KAW;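 note: growth inhibition of human A3-KAW cells, read out with a cell viability assay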
Description: SANGER: Inhibition of human A3-KAW cell growth in a cell viability assay.

BB49-HNC = type: functional, cell-based, Homo sapiens; settings: Homo sapiens, BB49-HNC;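 note: cell viability assay read-out, reported as inhibition of BB49-HNC cell growth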
Description: SANGER: Inhibition of human BB49-HNC cell growth in a cell viability assay.

TGBC1TKB = type: functional, cell-based, Homo sapiens; settings: Homo sapiens, TGBC1TKB;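 note: growth inhibition of TGBC1TKB cells, read out by a cell viability assay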
Description: SANGER: Inhibition of human TGBC1TKB cell growth in a cell viability assay.

CAS-1 = type: functional, cell-based, Homo sapiens; settings: Homo sapiens, CAS-1;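 note: growth inhibition of CAS-1 cells, measured with a cell viability assay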
Description: SANGER: Inhibition of human CAS-1 cell growth in a cell viability assay.

CGTH-W-1 = type: functional, cell-based, Homo sapiens; settings: Homo sapiens, CGTH-W-1;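 note: growth inhibition of human CGTH-W-1 cells measured by cell viability assay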
Description: SANGER: Inhibition of human CGTH-W-1 cell growth in a cell viability assay.

With `N#Cc1c(O)c2c(-c3ccc(-c4ccccc4O)cc3)csc2[nH]c1=O` the IC50 (Calu-6) was over 1020 nM, the IC50 (DB) was 489 nM and the IC50 (EM-2) was 344 nM. For the same compound, the IC50 (ES7) was over 1020 nM, the IC50 (GOTO) was 395 nM and the IC50 (HCC 2998) was over 1020 nM. It also gave an IC50 (HCE-4) of over 1020 nM, an IC50 (HDLM-2) of 136 nM and an IC50 (IST-SL1) of over 1020 nM. It also gave an IC50 (K562) of over 1020 nM, an IC50 (KP-N-YS) of over 1020 nM and an IC50 (KS-1) of over 1020 nM. It also gave an IC50 (KU812 cell line) of over 1020 nM, an IC50 (KY821) of 817 nM and an IC50 (L-428) of 225 nM. The IC50 (LAN-6) was over 1020 nM, the IC50 (LB2241-RCC) was over 1020 nM and the IC50 (LS-513) was over 1020 nM. It also gave an IC50 (MFH-ino) of over 1020 nM, an IC50 (ML-2) of 43.4 nM and an IC50 (MPP-89) of over 1020 nM. It also gave an IC50 (MV4-11) of 22.7 nM, an IC50 (MZ2-MEL) of over 1020 nM and an IC50 (MZ7-mel) of over 1020 nM. It also gave an IC50 (Mo) of over 1020 nM, an IC50 (NB69) of 686 nM and an IC50 (NCI-H1304) of 634 nM. For the same compound, the IC50 (NCI-H1395) was over 1020 nM, the IC50 (NCI-H1838) was over 1020 nM and the IC50 (NCI-H2126) was over 1020 nM. It also gave an IC50 (NCI-H720) of over 1020 nM, an IC50 (SNU1) of 311 nM and an IC50 (NOS-1) of over 1020 nM. The IC50 (NTERA-2-cl-D1) was over 1020 nM, the IC50 (OCUB-M) was over 1020 nM and the IC50 (ONS-76) was over 1020 nM. It also gave an IC50 (P30-OHK) of 993 nM, an IC50 (SF-126) of over 1020 nM and an IC50 (SF-539) of over 1020 nM. It also gave an IC50 (SW872) of over 1020 nM, an IC50 697 of over 1020 nM and an IC50 (8-MG-BA) of over 1020 nM. For the same compound, the IC50 (A253 cell line) was over 1020 nM, the IC50 (A3-KAW) was 91.7 nM and the IC50 (BB49-HNC) was over 1020 nM. The IC50 (TGBC1TKB) was over 1020 nM, the IC50 (CAS-1) was 193 nM and the IC50 (CGTH-W-1) was over 1020 nM.
`C=C(c1ccc(C(=O)O)cc1)c1cc2c(cc1C)C(C)(C)CCC2(C)C` [BEXAROTENE] showed an IC50 (Calu-6) of over 8000 nM, an IC50 (DB) of over 8000 nM and an IC50 (EM-2) of over 8000 nM. For the same compound, the IC50 (ES7) was over 8000 nM, the IC50 (GOTO) was over 8000 nM and the IC50 (HCC 2998) was over 8000 nM. It also gave an IC50 (HCE-4) of over 8000 nM, an IC50 (HDLM-2) of over 8000 nM and an IC50 (IST-SL1) of over 8000 nM. The IC50 (K562) was over 8000 nM, the IC50 (KS-1) was over 8000 nM and the IC50 (KU812 cell line) was over 8000 nM. It also gave an IC50 (KY821) of over 8000 nM, an IC50 (L-428) of over 8000 nM and an IC50 (LAN-6) of over 8000 nM. The IC50 (LB2241-RCC) was over 8000 nM, the IC50 (LS-513) was over 8000 nM and the IC50 (MFH-ino) was 7210 nM. It also gave an IC50 (ML-2) of over 8000 nM, an IC50 (MPP-89) of over 8000 nM and an IC50 (MV4-11) of 453 nM. The IC50 (MZ2-MEL) was over 8000 nM, the IC50 (MZ7-mel) was over 8000 nM and the IC50 (Mo) was over 8000 nM. For the same compound, the IC50 (NB69) was over 8000 nM, the IC50 (NCI-H1304) was over 8000 nM and the IC50 (NCI-H1395) was over 8000 nM. It also gave an IC50 (NCI-H1838) of over 8000 nM, an IC50 (NCI-H2126) of over 8000 nM and an IC50 (NCI-H720) of over 8000 nM. For the same compound, the IC50 (SNU1) was over 8000 nM, the IC50 (NOS-1) was 6920 nM and the IC50 (NTERA-2-cl-D1) was over 8000 nM. It also gave an IC50 (OCUB-M) of 1020 nM, an IC50 (ONS-76) of over 8000 nM and an IC50 (P30-OHK) of over 8000 nM. The IC50 (SF-126) was over 8000 nM, the IC50 (SF-539) was over 8000 nM and the IC50 (SW872) was over 8000 nM. It also gave an IC50 697 of over 8000 nM, an IC50 (8-MG-BA) of over 8000 nM and an IC50 (A253 cell line) of over 8000 nM. It also gave an IC50 (A3-KAW) of over 8000 nM, an IC50 (BB49-HNC) of over 8000 nM and an IC50 (TGBC1TKB) of over 8000 nM. For the same compound, the IC50 (CAS-1) was over 8000 nM and the IC50 (CGTH-W-1) was over 8000 nM.
`Nc1ccn([C@@H]2O[C@H](CO)[C@@H](O)C2(F)F)c(=O)n1` [GEMCITABINE] showed an IC50 (Calu-6) of 1.73 nM, an IC50 (DB) of 84.4 nM and an IC50 (EM-2) of 160 nM. For the same compound, the IC50 (ES7) was 19.8 nM, the IC50 (GOTO) was over 1020 nM and the IC50 (HCC 2998) was 6.34 nM. It also gave an IC50 (HCE-4) of under 4 nM, an IC50 (HDLM-2) of over 1020 nM and an IC50 (IST-SL1) of 197 nM. It also gave an IC50 (K562) of 333 nM, an IC50 (KS-1) of 167 nM and an IC50 (KU812 cell line) of 1.91 nM. For the same compound, the IC50 (KY821) was over 1020 nM, the IC50 (L-428) was 23.6 nM and the IC50 (LAN-6) was over 1020 nM. The IC50 (LB2241-RCC) was under 4 nM, the IC50 (LS-513) was 888 nM and the IC50 (MFH-ino) was 1.66 nM. The IC50 (ML-2) was 25.7 nM, the IC50 (MPP-89) was 692 nM and the IC50 (MV4-11) was under 4 nM. It also gave an IC50 (MZ2-MEL) of 26.2 nM, an IC50 (MZ7-mel) of 42.7 nM and an IC50 (Mo) of over 1020 nM. It also gave an IC50 (NB69) of 1.05 nM, an IC50 (NCI-H1304) of 385 nM and an IC50 (NCI-H1395) of over 1020 nM. For the same compound, the IC50 (NCI-H1838) was over 1020 nM, the IC50 (NCI-H2126) was over 1020 nM and the IC50 (NCI-H720) was over 1020 nM. The IC50 (SNU1) was under 4 nM, the IC50 (NOS-1) was 32.4 nM and the IC50 (NTERA-2-cl-D1) was 1.64 nM. The IC50 (OCUB-M) was 10 nM, the IC50 (ONS-76) was 8.68 nM and the IC50 (P30-OHK) was 1.46 nM. For the same compound, the IC50 (SF-126) was 7.05 nM, the IC50 (SF-539) was 1.02 nM and the IC50 (SW872) was under 4 nM. It also gave an IC50 697 of 6.25 nM, an IC50 (8-MG-BA) of 5.93 nM and an IC50 (A253 cell line) of 102 nM. The IC50 (A3-KAW) was under 4 nM, the IC50 (BB49-HNC) was over 1020 nM and the IC50 (TGBC1TKB) was over 1020 nM. For the same compound, the IC50 (CAS-1) was 955 nM and the IC50 (CGTH-W-1) was 2.72 nM.
